Measurements: patent US20260234139A1, “PGDH INHIBITORS AND METHODS OF MAKING AND USING” (Epirium Bio Inc., priority 2023, published 2026)

Columns and labels:
[1] = tested on: A549; assay: A549 EC50 (cell assay, method not described); assay type: cell-based; settings: Homo sapiens, A549, A549
[2] = molecular target: T1, 15-PGDH/HPGD (Homo sapiens, UniProt P15428); assay: hPGDH inhibitor screening biochemical assay; settings: 10 nM enzyme, 15 μM Prostaglandin E2, 0.25 mM NAD, fluorescence ex/em 340/485 nm
T1 construct: purchased R&D System 5660-DH
T1 sequence (P15428 1-266): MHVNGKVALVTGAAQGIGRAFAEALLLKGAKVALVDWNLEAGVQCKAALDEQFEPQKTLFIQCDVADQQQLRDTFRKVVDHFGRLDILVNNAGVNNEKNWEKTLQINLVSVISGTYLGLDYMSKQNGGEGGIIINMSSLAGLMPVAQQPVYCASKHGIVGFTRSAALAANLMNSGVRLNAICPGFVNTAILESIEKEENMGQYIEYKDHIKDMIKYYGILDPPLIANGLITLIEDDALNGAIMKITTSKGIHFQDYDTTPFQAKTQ
Method: A hydroxyprostaglandin dehydrogenase inhibition screening biochemical assay can be performed to assess the synthesized inhibitors provided herein. Provided herein is an exemplary biochemical assay for hPGDH inhibitor screening.
The in vitro biochemical assay can be performed in white, 384 plates in total 20 μl reaction volume consisting of 10 nM of 15-PGDH/HPGD (R&D System #5660-DH), 15 μM Prostaglandin E2 (Sigma, Cat #P5640-10 MG) and 0.25 mM B-Nicotinamide adenine dinucleotide sodium salt (Sigma, Cat #N0632-5G) made in reaction buffer (50 mM Tris-HCl, pH 7.5, 0.01% Tween 20) at 10-point dose response curve for test/tool compounds. Briefly, 5 μl (4×) of compounds solution and 5 μl (final concentration, 10 nM) of enzyme solution is added to white 384 well plates and incubated for 10 mins at 37° C. 5 μl (4×) of Prostaglandin E2 and 5 μl (4×) of β-Nicotinamide adenine dinucleotide sodium salt is added to the wells and incubated for 10 mins at room temperature. Fluorescence is recorded at ex/em=340 nm/485 nm.

## OC(c1cnc2c(ccn2-c2cccc(-c3nnc[nH]3)c2)c1)C1CC(F)(F)C1 (stereo in doubt) [Compound 7A, (R)-(3,3-difluorocyclobutyl)-[1-[3-(4H-1,2,4-triazol-3-yl)phenyl]pyrrolo[2,3-b]pyridin-5-yl]methanol]
[1]
  EC50: < 100 nM

## Cc1nn(-c2ccc(C(=O)O)cc2)c2ncc([C@@H](O)COC3CC3)cc12 [Compound 126A]
[1]
  EC50: 100 to 1000 nM
[2]
  IC50: < 100 nM

## CCCC[C@@H](O)c1cnc2c(ccn2-c2cccc(-c3nnc[nH]3)c2)n1 [Compound 2B]
[1]
  EC50: 100 to 1000 nM
[2]
  IC50: < 100 nM

## CS(=O)(=O)c1ccc(-n2ncc3cc([C@H](O)COC4CCC4)cnc32)cc1 [Compound 121B]
[1]
  EC50: ≥ 1000 nM
[2]
  IC50: ≥ 1000 nM

## CC(C)(OCC(F)F)[C@H](O)c1cnc2c(cnn2-c2cccc(-c3nnc[nH]3)c2)c1 [Compound 61B]
[1]
  EC50: 100 to 1000 nM
[2]
  IC50: ≥ 1000 nM

## O=C(O)c1ccc(-n2ncc3cc([C@@H](O)COC4CC(F)(F)C4)cnc32)cc1 [Compound 91A]
[1]
  EC50: ≥ 1000 nM

## O=C(O)CCc1ccc(-n2ncc3cc([C@@H](O)COC4CCCC4)cnc32)cc1F [Compound 88A]
[1]
  EC50: ≥ 1000 nM
[2]
  IC50: 100 to 1000 nM

## CS(=O)(=O)c1ccc(-n2ncc3cc([C@@H](O)COC4CCC4)cnc32)cc1 [Compound 121A]
[1]
  EC50: 100 to 1000 nM
[2]
  IC50: 100 to 1000 nM

## O[C@@H](c1cnc2c(ccn2-c2cc(Cl)cc(-c3nnc[nH]3)c2)c1)C1CCC(F)(F)CC1 [Compound 12A]
[1]
  EC50: ≥ 1000 nM
[2]
  IC50: < 100 nM

## O=C(O)c1ccc(-n2ncc3cc([C@H](O)COCC4CC4)ccc32)cc1 [Compound 114B]
[1]
  EC50: 100 to 1000 nM
[2]
  IC50: < 100 nM

## O=C(O)c1ccc(-n2ncc3cc([C@H](O)C4(OCC(F)F)CC4)cnc32)cc1 [Compound 72A]
[1]
  EC50: 100 to 1000 nM
[2]
  IC50: < 100 nM

## CCNCC(O)c1cnc2c(cnn2-c2cccc(-c3nnc[nH]3)c2)c1 (stereo not drawn) [Compound 21]
[1]
  EC50: ≥ 1000 nM
[2]
  IC50: ≥ 1000 nM

## CC(C)CC[C@@H](O)c1cnc2c(ccn2-c2ccc(C(=O)O)cc2)n1 [Compound 40B]
[1]
  EC50: < 100 nM
[2]
  IC50: < 100 nM

## O=C(O)c1ccc(-n2ncc3cc([C@H](O)C4CC(F)(F)C4)cnc32)cn1 [Compound 97A]
[1]
  EC50: ≥ 1000 nM

## COC(C)(C)C[C@H](O)c1cnc2c(cnn2-c2cccc(-c3nnc[nH]3)c2)c1 [Compound 54B]
[1]
  EC50: 100 to 1000 nM
[2]
  IC50: < 100 nM

## CC1(C)CC(OC[C@@H](O)c2cnc3c(cnn3-c3ccc(C(=O)O)cc3)c2)C1 [Compound 105B]
[1]
  EC50: < 100 nM

## CCOC1([C@@H](O)c2cnc3c(cnn3-c3ccc(C(=O)O)cc3)c2)CC1 [Compound 58B]
[1]
  EC50: 100 to 1000 nM
[2]
  IC50: < 100 nM

## CCOC(C)(C)[C@@H](O)c1cnc2c(cnn2-c2ccc(C(=O)O)cc2)c1 [Compound 53B]
[1]
  EC50: < 100 nM
[2]
  IC50: < 100 nM

## O=C(O)c1ccc(-n2ncc3cc([C@H](O)COC4CCC4)cnc32)cc1 [Compound 42B]
[1]
  EC50: < 100 nM
[2]
  IC50: < 100 nM

## O[C@H](c1cnc2c(cnn2-c2cccc(-c3nnc[nH]3)c2)c1)C1COC1 [Compound 28B]
[1]
  EC50: 100 to 1000 nM
[2]
  IC50: < 100 nM

## O=C(O)c1ccc(-n2ncc3cc([C@H](O)COC4CC(F)(F)C4)cnc32)cc1 [Compound 91B]
[1]
  EC50: ≥ 1000 nM

## Cc1nn(-c2ccc(C(=O)O)cc2)c2ncc([C@H](O)C3CC(F)(F)C3)cc12 [Compound 102A]
[1]
  EC50: ≥ 1000 nM

## CC(C)OC[C@@H](O)c1cnc2c(ccn2-c2ccc(C(=O)O)cc2)n1 [Compound 49B]
[1]
  EC50: 100 to 1000 nM
[2]
  IC50: < 100 nM

## CC1(COC[C@H](O)c2cnc3c(cnn3-c3ccc(C(=O)O)cc3)c2)CC1 [Compound 106A]
[1]
  EC50: < 100 nM
[2]
  IC50: < 100 nM

## O[C@H](COC1CCC1)c1cnc2c(cnn2-c2cncc(-c3nnc[nH]3)c2)c1 [Compound 117B]
[1]
  EC50: < 100 nM
[2]
  IC50: < 100 nM

## CCC1(OC[C@H](O)c2cnc3c(cnn3-c3ccc(C(=O)O)cc3)c2)CC1 [Compound 93A]
[1]
  EC50: 100 to 1000 nM
[2]
  IC50: < 100 nM

## CC(C)OCC(O)c1cnc2c(cnn2-c2ccc(CCC(=O)O)c(F)c2)c1 (stereo in doubt) [Compound 70A, (R)-3-(2-fluoro-4-(5-(1-hydroxy-2-isopropoxyethyl)-1H-pyrazolo[3,4-b]pyridin-1-yl)phenyl) propanoic acid]
[1]
  EC50: < 100 nM
[2]
  IC50: < 100 nM

## O[C@@H](c1cnc2c(cnn2-c2cccc(-c3nnc[nH]3)c2)c1)C1CCCC1 [Compound 9B]
[1]
  EC50: < 100 nM

## CC(C)(C)OC[C@H](O)c1cnc2c(ccn2-c2cccc(-c3nnc[nH]3)c2)c1 [Compound 31A]
[2]
  IC50: < 100 nM

## CCCCC(F)(F)[C@H](O)c1cnc2c(ccn2-c2cccc(-c3nnc[nH]3)c2)c1 [Compound 8B]
[1]
  EC50: 100 to 1000 nM

## O=C(O)c1ccc(-n2ccc3cc([C@H](O)COC4CCC4)cnc32)cc1 [Compound 103B]
[1]
  EC50: 100 to 1000 nM

## OC(c1cnc2c(ccn2-c2cccc(-c3nnc[nH]3)c2)c1)C1CC(F)(F)C1 (stereo in doubt) [Compound 7B, (S)-(3,3-difluorocyclobutyl)-[1-[3-(4H-1,2,4-triazol-3-yl)phenyl]pyrrolo[2,3-b]pyridin-5-yl]methanol]
[1]
  EC50: < 100 nM

## CC(C)(O)c1cnc2c(cnn2-c2cc(Cl)cc(-c3nnc[nH]3)c2)c1 [Compound 19, 2-[1-[3-chloro-5-(4H-1,2,4-triazol-3-yl)phenyl]pyrazolo[3,4-b]pyridin-5-yl]propan-2-ol]
[2]
  IC50: ≥ 1000 nM

## O[C@@H](c1cnc2c(ccn2-c2cccc(-c3nnc[nH]3)c2)c1)C1CCCC1 [Compound 6B]
[1]
  EC50: 100 to 1000 nM

## O=C(O)CCc1ccc(-n2ncc3cc([C@H](O)COC4CCC4)cnc32)cc1F [Compound 82B]
[1]
  EC50: ≥ 1000 nM

## CC(O)(c1cnc2c(ccn2-c2cccc(-c3nnc[nH]3)c2)c1)C1CCCC1 (single isomer, unassigned) [Compound 11A]
[2]
  IC50: 100 to 1000 nM

## O=C(O)c1ccc(-n2ncc3cc([C@@H](O)COCC4CCC4)cnc32)cc1 [Compound 101A]
[1]
  EC50: < 100 nM

## O[C@@H](COC1CCC1)c1cnc2c(cnn2-c2ccc(-c3nnn[nH]3)cc2)c1 [Compound 79B]
[2]
  IC50: < 100 nM

## O=C(O)c1ccc(-n2ccc3cc([C@H](O)[C@@H]4CCCO4)cnc32)cc1 [Compound 98B]
[1]
  EC50: < 100 nM

## CC(O)(c1cnc2c(ccn2-c2cccc(-c3nnc[nH]3)c2)c1)C1CCCC1 (single isomer, unassigned) [Compound 11B]
[2]
  IC50: ≥ 1000 nM

## O[C@H](c1cnc2c(cnn2-c2cccc(-c3nnc[nH]3)c2)c1)C1CCCC1 [Compound 9A]
[1]
  EC50: < 100 nM

## O=C(O)c1ccc(-n2ncc3cc([C@@H](O)C4COC4)ccc32)cc1 [Compound 120B]
[2]
  IC50: 100 to 1000 nM

## O=C(O)c1ccc(-n2ccc3cc([C@@H](O)[C@@H]4CCCO4)cnc32)cc1 [Compound 98A]
[1]
  EC50: ≥ 1000 nM

## CS(=O)(=O)c1cccc(-n2ncc3cc([C@@H](O)COC4CCC4)cnc32)c1 [Compound 123A]
[1]
  EC50: 100 to 1000 nM

## Cc1nn(-c2ccc(C(=O)O)cc2)c2ncc([C@H](O)COC3CCCC3)cc12 [Compound 104B]
[1]
  EC50: 100 to 1000 nM

## OC1(c2cnc3c(ccn3-c3cc(Cl)cc(-c4nnc[nH]4)c3)c2)CCCC1 [Compound 13]
[2]
  IC50: 100 to 1000 nM

## CC(C)OC[C@H](O)c1cnc2c(cnn2-c2ccc(CCCC(=O)O)c(F)c2)c1 [Compound 77B]
[2]
  IC50: < 100 nM

## O=C(O)c1ccc(-n2ncc3cc([C@@H](O)C4CC(F)(F)C4)cnc32)cn1 [Compound 97B]
[1]
  EC50: < 100 nM

## O[C@H](c1cnc2c(ccn2-c2cccc(-c3nnc[nH]3)c2)c1)C1CCCC1 [Compound 6A]
[1]
  EC50: < 100 nM

## CC(C)(O)c1cnc2c(ccn2-c2cc(Cl)cc(-c3nnc[nH]3)c2)c1 [Compound 14]
[2]
  IC50: 100 to 1000 nM

## Cc1nn(-c2ccc(C(=O)O)cc2)c2ncc([C@@H](O)C3CC(F)(F)C3)cc12 [Compound 102B]
[1]
  EC50: 100 to 1000 nM

## O=C(O)CCc1ccc(-n2ncc3cc([C@H](O)COC4CC4)cnc32)cc1F [Compound 86B]
[2]
  IC50: < 100 nM

## O=C(O)c1ccc(-n2ccc3cc([C@@H](O)COC4CCC4)cnc32)cc1 [Compound 103A]
[1]
  EC50: < 100 nM

## CS(=O)(=O)c1cccc(-n2ncc3cc([C@H](O)COC4CCC4)cnc32)c1 [Compound 123B]
[1]
  EC50: ≥ 1000 nM

## CC(C)OC[C@@H](O)c1cnc2c(cnn2-c2ccc(OCC(=O)O)cc2)c1 [Compound 78B]
[2]
  IC50: < 100 nM

## CCCCC(F)(F)[C@@H](O)c1cnc2c(ccn2-c2cccc(-c3nnc[nH]3)c2)c1 [Compound 8A]
[1]
  EC50: < 100 nM

## Cc1nn(-c2ccc(C(=O)O)cc2)c2ncc([C@@H](O)COC3CCCC3)cc12 [Compound 104A]
[1]
  EC50: 100 to 1000 nM

## O=C(O)c1ccc(-n2ccc3cc([C@H](O)[C@H]4CCCO4)cnc32)cc1 [Compound 100B]
[1]
  EC50: < 100 nM

## O=C(O)c1ccc(-n2ccc3cc([C@@H](O)[C@H]4CCCO4)cnc32)cc1 [Compound 100A]
[1]
  EC50: ≥ 1000 nM

## CC1(C)CC(OC[C@H](O)c2cnc3c(cnn3-c3ccc(C(=O)O)cc3)c2)C1 [Compound 105A]
[1]
  EC50: 100 to 1000 nM
